Measurements published in patent publication US6825199B2, “7-Substituted quinazolin-2,4-diones useful as antibacterial agents” (Warner-Lambert Company, priority 1997, dated 2004).
In brackets after ≈: the same amount, converted by molar mass. Where two headings read alike, the source gives them in different places.

Experiments:
[1] = tested on: S. aureus 29213; experiment: Antibacterial assay, standard microtitration (MIC); type: cell-based; settings: Gram positive; for MIC: Staphylococcus aureus, 29213, read-out: Minimum Inhibitory Concentrations S. aureus 29213
Procedure: (§1) Antibacterial assay: The compounds of the present invention were tested against an assortment of Gram negative and Gram positive organisms using standard microtitration techniques (Cohen, et al., Antimicrob. Agents Chemother., 1985;28:766; Heifetz, et al., Antimicrob. Agents Chemother., 1974;6:124).

[2] = tested on: E. coli B90; experiment: Antibacterial assay, standard microtitration (MIC); type: cell-based; settings: Gram negative; for MIC: Escherichia coli, B90, read-out: Minimum Inhibitory Concentrations E. coli B90
Procedure: as §1

[3] = tested on: E. coli MC4100; experiment: Antibacterial assay, standard microtitration (MIC); type: cell-based; settings: Gram negative; for MIC: Escherichia coli, MC4100, read-out: Minimum Inhibitory Concentrations E. coli MC4100
Procedure: as §1

[4] = tested on: E. coli Tol C; experiment: Antibacterial assay, standard microtitration (MIC); type: cell-based; settings: for MIC: Escherichia coli, read-out: Minimum Inhibitory Concentrations E. coli Tol C; for Minimum Inhibitory Concentrations E. coli Tol C: Gram negative
Procedure: as §1

[5] = tested on: S. pyogenes C203; experiment: Antibacterial assay, standard microtitration (MIC); type: cell-based; settings: Gram positive; for MIC: Streptococcus pyogenes, C203, read-out: Minimum Inhibitory Concentrations S. pyogenes C203
Procedure: as §1

[6] = tested on: B. subtilis RB1; experiment: Antibacterial assay, standard microtitration (MIC); type: cell-based; settings: Bacillus subtilis, Gram positive, read-out: Minimum Inhibitory Concentrations B. subtilis RB1
Procedure: as §1

[7] = target: T1, E. coli gyrase (Escherichia coli, UniProt P0AES4+P0AES6); experiment: DNA gyrase supercoiling inhibition assay; type: biochemical
T1 construct: purchased Lucent, Ltd., Leicester, UK
T1 sequence (P0AES4 whole entry, one chain of several): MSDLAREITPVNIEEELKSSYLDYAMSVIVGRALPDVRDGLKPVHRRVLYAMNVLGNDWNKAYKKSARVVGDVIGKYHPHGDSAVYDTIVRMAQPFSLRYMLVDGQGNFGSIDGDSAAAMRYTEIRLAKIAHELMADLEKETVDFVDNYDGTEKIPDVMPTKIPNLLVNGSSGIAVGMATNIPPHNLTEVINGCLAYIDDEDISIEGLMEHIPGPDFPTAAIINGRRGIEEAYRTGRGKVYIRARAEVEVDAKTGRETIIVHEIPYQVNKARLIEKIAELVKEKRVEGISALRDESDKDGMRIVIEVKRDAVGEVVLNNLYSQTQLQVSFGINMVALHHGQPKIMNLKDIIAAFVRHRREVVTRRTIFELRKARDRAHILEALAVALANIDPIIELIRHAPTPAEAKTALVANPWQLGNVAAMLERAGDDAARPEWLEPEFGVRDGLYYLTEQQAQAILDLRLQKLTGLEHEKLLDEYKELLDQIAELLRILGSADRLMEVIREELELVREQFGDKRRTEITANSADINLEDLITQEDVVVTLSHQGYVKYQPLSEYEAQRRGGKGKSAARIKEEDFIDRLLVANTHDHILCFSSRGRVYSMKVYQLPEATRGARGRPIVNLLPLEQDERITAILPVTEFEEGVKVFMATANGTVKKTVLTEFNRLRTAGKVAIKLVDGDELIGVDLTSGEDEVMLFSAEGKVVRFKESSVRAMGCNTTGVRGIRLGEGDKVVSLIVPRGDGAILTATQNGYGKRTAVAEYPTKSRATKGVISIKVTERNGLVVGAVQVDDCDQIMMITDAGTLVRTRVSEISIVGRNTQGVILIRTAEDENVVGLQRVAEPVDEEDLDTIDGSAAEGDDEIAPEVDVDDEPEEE
Procedure: DNA gyrase assay: The effects of test agents on the activity of DNA gyrase was determined by the supercoiling inhibition assay, following reaction conditions recommended by the enzyme supplier (Lucent, Ltd., Leicester, UK), as follows. Reactions were performed in buffer G (35 mM Tris-HCl (pH 7.5), 24 mM KCl, 4 mM MgCl2, 2 mM DTT, 1.8 mM spermidine, 1 mM ATP, 0.1 mg/mL bovine serum albumin). 0.25 μg of relaxed plasmid pBR322 (Lucent, Ltd., Leicester, UK) was reacted with 1 U E. coli gyrase (Lucent, Ltd., Leicester, UK), in the absence or presence of drugs, for 30 minutes at 37° C. Reactions were stopped by the addition of SDS and proteinase K to respective final concentrations of 1% and 0.5 mg/mL. After an additional 30 minutes at 37° C., one-tenth volume of 10×loading buffer (0.3% bromophenol blue, 16% Ficoll, 10 mM Na2HPO4) was added, and reactions were loaded onto agarose gels and electrophoresed as described above for intercalation assays. The concentration of drug inhibiting 50% of the supercoiling activity of DNA gyrase is given as an IC50 and recorded in Table 2.

[8] = target: T2, E. coli Topoisomerase IV (Escherichia coli, UniProt P0AFI2+P20083); experiment: Topoisomerase IV k-DNA decatenation assay; type: biochemical
T2 construct: made in house; host or cells: E. coli overexpressing strains
T2 sequence (P20083 whole entry): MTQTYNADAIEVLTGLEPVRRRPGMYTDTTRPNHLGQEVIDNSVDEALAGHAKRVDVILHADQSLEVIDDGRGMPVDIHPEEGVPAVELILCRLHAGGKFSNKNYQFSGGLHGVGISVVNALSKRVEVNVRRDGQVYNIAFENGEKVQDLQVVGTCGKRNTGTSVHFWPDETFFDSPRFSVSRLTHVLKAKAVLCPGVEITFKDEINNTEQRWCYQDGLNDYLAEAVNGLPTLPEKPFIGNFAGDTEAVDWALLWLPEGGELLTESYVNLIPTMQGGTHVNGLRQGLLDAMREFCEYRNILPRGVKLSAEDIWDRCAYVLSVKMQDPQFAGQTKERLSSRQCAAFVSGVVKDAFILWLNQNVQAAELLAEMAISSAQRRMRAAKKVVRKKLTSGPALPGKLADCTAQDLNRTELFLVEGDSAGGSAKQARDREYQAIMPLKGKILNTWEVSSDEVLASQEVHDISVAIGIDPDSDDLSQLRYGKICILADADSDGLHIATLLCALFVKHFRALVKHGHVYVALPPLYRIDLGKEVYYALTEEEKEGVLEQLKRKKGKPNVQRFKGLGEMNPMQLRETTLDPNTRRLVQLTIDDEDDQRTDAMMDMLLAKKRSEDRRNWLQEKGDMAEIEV
T2 sequence (P0AFI2 whole entry): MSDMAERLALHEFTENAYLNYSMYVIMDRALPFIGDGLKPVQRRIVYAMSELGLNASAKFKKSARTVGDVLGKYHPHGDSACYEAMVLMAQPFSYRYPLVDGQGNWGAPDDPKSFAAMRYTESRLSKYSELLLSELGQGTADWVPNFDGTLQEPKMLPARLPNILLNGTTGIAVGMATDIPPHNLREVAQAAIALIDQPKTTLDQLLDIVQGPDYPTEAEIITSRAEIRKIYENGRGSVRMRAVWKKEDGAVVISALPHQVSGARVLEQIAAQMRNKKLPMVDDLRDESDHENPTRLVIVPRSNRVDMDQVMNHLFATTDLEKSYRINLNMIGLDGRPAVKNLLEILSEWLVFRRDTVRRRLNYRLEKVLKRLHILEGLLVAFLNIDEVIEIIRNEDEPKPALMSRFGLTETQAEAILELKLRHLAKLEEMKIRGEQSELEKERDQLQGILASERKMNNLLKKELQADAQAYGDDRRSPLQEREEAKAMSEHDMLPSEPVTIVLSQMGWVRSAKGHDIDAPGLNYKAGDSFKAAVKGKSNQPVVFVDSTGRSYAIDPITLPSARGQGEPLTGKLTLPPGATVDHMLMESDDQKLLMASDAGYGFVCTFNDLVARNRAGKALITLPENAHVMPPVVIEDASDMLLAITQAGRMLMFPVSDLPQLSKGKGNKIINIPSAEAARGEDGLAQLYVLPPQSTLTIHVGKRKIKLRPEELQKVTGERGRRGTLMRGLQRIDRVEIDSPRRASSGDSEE
Procedure: Topoisomerase IV assay: Topoisomerase IV was purified from E. coli overexpressing strains, and the compounds were assayed according to literature conditions (Journal of Biological Chemistry, 1993;268(32):24481). The k-DNA decatenation assay was used. Briefly, reactions were performed in buffer R (40 mM Tris-HCl (pH 7.5),6 mM MgCl2, 10 mM DTT, 100 mM potassium glutamate, 40 μM ATP, 50 μg/mL bovine serum albumin, 10 mM NaCl). Two-tenths microgram of kinetoplast DNA (k-DNA; TopoGen, Columbus, Ohio) was incubated with 5 ng of E. coli Topoisomerase IV in the presence or absence of test compounds for 10 minutes at 37° C. Subsequently, one-tenth volume of 10×gel loading buffer (0.3% bromophenol blue, 16% Ficoll, 10 mM Na2HPO4) was added, and samples were loaded onto horizontal 0.8% agarose gels prepared with TBE buffer and containing 0.05 μg/mL of ethidium bromide. Electrophoresis was at 70 V for 2 to 4 hours. Gels were then examined by exposure to UV light. The concentration of drug inhibiting 50% of the decantenating activity of Topoisomerase IV is given as an IC50 and recorded in Table 2.

[9] = supercoiling of relaxed pBR322, 30 minutes at 37° C., read-out: Gyrase IC50
[10] = k-DNA decatenation, 10 minutes at 37° C., read-out: DNA TopIV IC50

CCn1c(=O)n(O)c(=O)c2cc(F)c(N3CCCC3)cc21 [Example 1, 1-Ethyl-6-fluoro-3-hydroxy-7-pyrrolidin-1-yl-1H-quinazoline-2,4-dione]
MIC [1]: 32 µg/mL (≈ 109 µM) | MIC [2]: 2 µg/mL (≈ 6.82 µM) | MIC [3]: > 64 µg/mL | MIC [4]: 1 µg/mL (≈ 3.41 µM) | MIC [5]: 32 µg/mL (≈ 109 µM) | MIC [6]: 4 µg/mL (≈ 13.6 µM)

CCn1c(=O)n(O)c(=O)c2cc(F)c(N3CCN(C)CC3)cc21 [Example 2, 1-Ethyl-6-fluoro-3-hydroxy-7-(4-methyl-piperazin-1-yl)-1H-quinazoline-2,4-dione]
IC50 [7]: 22 µM | IC50 [8]: > 100 µM | MIC [1]: > 64 µg/mL | MIC [2]: 4 µg/mL (≈ 12.4 µM) | MIC [3]: 16 µg/mL (≈ 49.6 µM) | MIC [4]: 2 µg/mL (≈ 6.2 µM) | MIC [5]: > 64 µg/mL | MIC [6]: 16 µg/mL (≈ 49.6 µM)

CCn1c(=O)n(O)c(=O)c2cc(F)c(N3CCCCC3)cc21 [Example 4, 1-Ethyl-6-fluoro-3-hydroxy-7-piperidin-1-yl-1H-quinazoline-2,4-dione]
MIC [1]: 64 µg/mL (≈ 208 µM) | MIC [2]: 16 µg/mL (≈ 52.1 µM) | MIC [3]: > 64 µg/mL | MIC [4]: 16 µg/mL (≈ 52.1 µM) | MIC [5]: 64 µg/mL (≈ 208 µM) | MIC [6]: 8 µg/mL (≈ 26 µM)

CCn1c(=O)n(O)c(=O)c2cc(F)c(N3CCC(CN)C3)cc21.Cl (stereo not drawn) [Example 6, 7-(3-Aminomethyl-pyrrolidin-1-yl)-1-ethyl-6-fluoro-3-hydroxy-1H-quinazoline-2,4-dione, hydrochloride]
IC50 [7]: 5.5 µM | IC50 [8]: 59 µM | MIC [1]: 64 µg/mL | MIC [2]: 8 µg/mL | MIC [3]: 64 µg/mL | MIC [4]: 8 µg/mL | MIC [5]: 16 µg/mL | MIC [6]: 32 µg/mL

CCn1c(=O)n(O)c(=O)c2cc(F)c(N3CCNCC3)cc21 [Example 7, 1-Ethyl-6-fluoro-3-hydroxy-7-piperazin-1-yl-1H-quinazoline-2,4-dione]
IC50 [7]: > 100 µM | IC50 [8]: 49 µM | MIC [1]: > 64 µg/mL | MIC [2]: 4 µg/mL (≈ 13 µM) | MIC [3]: 16 µg/mL (≈ 51.9 µM) | MIC [4]: 8 µg/mL (≈ 25.9 µM) | MIC [5]: > 64 µg/mL | MIC [6]: > 64 µg/mL

O=c1c2cc(F)c(N3CCCC3)cc2n(-c2ccc(O)cc2)c(=O)n1O [Example 14, 1-(4-Hydroxyphenyl)-6-fluoro-3-hydroxy-7-pyrrolidin-yl-1-1H-quinazoline-2,4-dione]
IC50 [7, 9]: 46 µM | MIC [1]: 32 µg/mL (≈ 89.6 µM) | MIC [2]: 4 µg/mL (≈ 11.2 µM) | MIC [3]: 64 µg/mL (≈ 179 µM) | MIC [4]: 1 µg/mL (≈ 2.8 µM) | MIC [5]: 64 µg/mL (≈ 179 µM)

Cl.NC1CCN(c2cc3c(cc2F)c(=O)n(O)c(=O)n3-c2ccc(F)cc2)C1 (stereo not drawn) [Example 17, 1-(4-Fluorophenyl)-6-fluoro-3-hydroxy-7-(3-aminopyrrolidin-1-yl)-1H-quinazoline-2,4-dione, hydrochloride]
MIC [1]: > 64 µg/mL | MIC [2]: 64 µg/mL | MIC [3]: > 64 µg/mL | MIC [4]: 32 µg/mL | MIC [5]: 32 µg/mL

COc1cccc(-n2c(=O)n(O)c(=O)c3cc(F)c(N4CCCC4)cc32)c1 [Example 23, 1-(3-Methoxyphenyl)-6-fluoro-3-hydroxy-7-pyrrolidin-1-yl-1H-quinazoline-2,4-dione]
IC50 [7, 9]: 36 µM | IC50 [8, 10]: > 100 µM | MIC [1]: 32 µg/mL (≈ 86.2 µM) | MIC [2]: 32 µg/mL (≈ 86.2 µM) | MIC [3]: > 64 µg/mL | MIC [4]: 32 µg/mL (≈ 86.2 µM) | MIC [5]: 32 µg/mL (≈ 86.2 µM)

O=c1c2cc(F)c(N3CCCC3)cc2n(-c2cccc(F)c2)c(=O)n1O [Example 28, 1-(3-Fluorophenyl)-6-fluoro-3-hydroxy-7-pyrrolidin-1-yl-1H-quinazoline-2,4-dione]
MIC [1]: 32 µg/mL (≈ 89.1 µM) | MIC [2]: 2 µg/mL (≈ 5.57 µM) | MIC [3]: > 64 µg/mL | MIC [4]: 2 µg/mL (≈ 5.57 µM) | MIC [5]: 32 µg/mL (≈ 89.1 µM)

O=c1c2cc(F)c(N3CCCC3)nc2n(C2CC2)c(=O)n1O [Example 32, 1-Cyclopropyl-6-fluoro-3-hydroxy-7-pyrrolidin-1-yl-1H-pyrido[2,3-d]pyrimidine-2,4-dione]
IC50 [7, 9]: 6.4 µM | IC50 [8, 10]: > 100 µM | MIC [1]: 8 µg/mL (≈ 26.1 µM) | MIC [2]: 0.5 µg/mL (≈ 1.63 µM) | MIC [3]: > 64 µg/mL | MIC [4]: 0.5 µg/mL (≈ 1.63 µM) | MIC [5]: 64 µg/mL (≈ 209 µM)

CCn1c(=O)n(O)c(=O)c2cc(F)c(N3CCC(N)C3)nc21.O=C(O)C(F)(F)F (stereo not drawn) [Example 36, 7-(3-Aminopyrrolidin-1-yl)-1-ethyl-6-fluoro-3-hydroxy-1H-pyrido[2,3-d]pyrimidine-2,4-dione, trifluoroacetate]
MIC [1]: 64 µg/mL | MIC [2]: 2 µg/mL | MIC [3]: 8 µg/mL | MIC [4]: 2 µg/mL | MIC [5]: 32 µg/mL

N[C@@H]1[C@H]2CN(c3cc4c(cc3F)c(=O)n(O)c(=O)n4C3CC3)C[C@@H]12.O=C(O)C(F)(F)F [Example 42, (1α, 5α, 6α)7-(6-Amino-3-aza-bicyclo[3.1.0]hex-3-yl)-1-cyclopropyl-6-fluoro-3-hydroxy-1H-quinazoline-2,4-dione, trifluoroacetate]
IC50 [7, 9]: 0.76 µM | IC50 [8, 10]: 28 µM | Minimum Inhibitory Concentrations S. aureus 29213 [1]: 4.0 µg/mL | Minimum Inhibitory Concentrations E. coli B90 [2]: 0.25 µg/mL | Minimum Inhibitory Concentrations E. coli MC4100 [3]: 1.0 µg/mL | Minimum Inhibitory Concentrations E. coli Tol C [4]: 0.25 µg/mL | Minimum Inhibitory Concentrations S. pyogenes C203 [5]: 2.0 µg/mL

O=c1c2cc(F)c(N3CCCC3)c3c2n(c(=O)n1O)CCS3 [Example 44, 8-Fluoro-5-hydroxy-9-pyrrolidin-1-yl-2,3-dihydro-1-thia-3α,5-diaza-phenalene-4,6-dione]
IC50 [7, 9]: 12 µM | IC50 [8, 10]: > 100 µM | MIC [1]: 4 µg/mL (≈ 12.4 µM) | MIC [2]: 1 µg/mL (≈ 3.09 µM) | MIC [3]: > 64 µg/mL | MIC [4]: 1 µg/mL (≈ 3.09 µM) | MIC [5]: 32 µg/mL (≈ 99 µM)

NC1C2CN(c3c(F)cc4c(=O)n(O)c(=O)n5c4c3SCC5)CC12.O=C(O)C(F)(F)F (stereo not drawn) [Example 46, (1α,5α,6α)9-(6-Amino-3-aza-bicyclo[3.1.0]hex-3-yl)-8-fluoro-5-hydroxy-2,3-dihydro-1-thia-3α,5-diaza-phenalene-4,6-dione, trifluoroacetate]
IC50 [7, 9]: 8.3 µM | Minimum Inhibitory Concentrations S. aureus 29213 [1]: >64 µg/mL | Minimum Inhibitory Concentrations E. coli B90 [2]: 2.0 µg/mL | Minimum Inhibitory Concentrations E. coli MC4100 [3]: 8.0 µg/mL | Minimum Inhibitory Concentrations E. coli Tol C [4]: 1.0 µg/mL | Minimum Inhibitory Concentrations S. pyogenes C203 [5]: 32 µg/mL

O=c1c2cc(F)c(N3CCCC3)nc2n(-c2ccc(F)cc2)c(=O)n1O [Example 56, 6-Fluoro-1-(4-fluorophenyl)-3-hydroxy-7-pyrrolidin-1-yl-1H-pyrido[2,3-d]pyrimidine-2,4-dione]
MIC [1]: 8 µg/mL (≈ 22.2 µM) | MIC [2]: 0.13 µg/mL (≈ 0.361 µM) | MIC [3]: 16 µg/mL (≈ 44.4 µM) | MIC [4]: 0.13 µg/mL (≈ 0.361 µM) | MIC [5]: 8 µg/mL (≈ 22.2 µM)
